System: 282377-053-R-J1-PDC complex spheroid viability
Test: Anticancer human tumor 282377-053-R-J1-PDC patient-derived colon adenocarcinoma cell line growth inhibition [RAS]
Settings: for IC50: curve of first compound; for viability, T/C: stronger effect = lower value
In short: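 Tumour cells grown as complex spheroids with HUVEC endothelial cells and mesenchymal stem cells, treated with RAS pathway inhibitor combinations. Each agent spans half-log steps from near clinical Cmax, or 10 microM where Cmax is unknown.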
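Also: spheroids exposed to agents for seven days before readout.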
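For viability, T/C in this document: luminescence viability as percent of DMSO vehicle control wells.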

CC(Nc1ccc2c(c1)OCCn1cc(N3C(=O)OCC3C(F)F)nc1-2)C(N)=O (centres undefined) + CCn1c(-c2cccnc2C(C)OC)c2c3cc(ccc31)N1CCOC(CC(NC(=O)C(C(C)C)N(C)C(=O)C3(F)CCN(C(=O)C#CC(C)(C)N(C)C)CC3)C(=O)N3CCCC(N3)C(=O)OCC(C)(C)C2)C1
IC50 (second compound 0.000949 µM): > 10000 nM
IC50 (second compound 0.003 µM): > 10000 nM
IC50 (second compound 0.00949 µM): > 10000 nM
IC50 (second compound 0.03 µM): > 10000 nM
IC50 (second compound 0.0949 µM): > 10000 nM
IC50 (second compound 0.3 µM): > 10000 nM
viability, T/C (second compound 0.000949 µM, first compound 0.0316 µM): 97.3%
viability, T/C (second compound 0.000949 µM, first compound 0.1 µM): 101%
viability, T/C (second compound 0.000949 µM, first compound 0.316 µM): 86.2%
viability, T/C (second compound 0.000949 µM, first compound 1 µM): 88.7%
viability, T/C (second compound 0.000949 µM, first compound 3.16 µM): 109%
viability, T/C (second compound 0.000949 µM, first compound 10 µM): 80.8%
viability, T/C (second compound 0.003 µM, first compound 0.0316 µM): 99.8%
viability, T/C (second compound 0.003 µM, first compound 0.1 µM): 97.7%
viability, T/C (second compound 0.003 µM, first compound 0.316 µM): 86.9%
viability, T/C (second compound 0.003 µM, first compound 1 µM): 94.4%
viability, T/C (second compound 0.003 µM, first compound 3.16 µM): 97.5%
viability, T/C (second compound 0.003 µM, first compound 10 µM): 78.1%
viability, T/C (second compound 0.00949 µM, first compound 0.0316 µM): 118%
viability, T/C (second compound 0.00949 µM, first compound 0.1 µM): 85.9%
viability, T/C (second compound 0.00949 µM, first compound 0.316 µM): 84%
viability, T/C (second compound 0.00949 µM, first compound 1 µM): 104%
viability, T/C (second compound 0.00949 µM, first compound 3.16 µM): 86.3%
viability, T/C (second compound 0.00949 µM, first compound 10 µM): 76.3%
viability, T/C (second compound 0.03 µM, first compound 0.0316 µM): 83.7%
viability, T/C (second compound 0.03 µM, first compound 0.1 µM): 83.8%
viability, T/C (second compound 0.03 µM, first compound 0.316 µM): 86.5%
viability, T/C (second compound 0.03 µM, first compound 1 µM): 98.5%
viability, T/C (second compound 0.03 µM, first compound 3.16 µM): 110%
viability, T/C (second compound 0.03 µM, first compound 10 µM): 75.2%
viability, T/C (second compound 0.0949 µM, first compound 0.0316 µM): 102%
viability, T/C (second compound 0.0949 µM, first compound 0.1 µM): 113%
viability, T/C (second compound 0.0949 µM, first compound 0.316 µM): 78.8%
viability, T/C (second compound 0.0949 µM, first compound 1 µM): 88.8%
viability, T/C (second compound 0.0949 µM, first compound 3.16 µM): 96.2%
viability, T/C (second compound 0.0949 µM, first compound 10 µM): 74.8%
viability, T/C (second compound 0.3 µM, first compound 0.0316 µM): 84.7%
viability, T/C (second compound 0.3 µM, first compound 0.1 µM): 85.5%
viability, T/C (second compound 0.3 µM, first compound 0.316 µM): 96.7%
viability, T/C (second compound 0.3 µM, first compound 1 µM): 98.5%
viability, T/C (second compound 0.3 µM, first compound 3.16 µM): 92.2%
viability, T/C (second compound 0.3 µM, first compound 10 µM): 82.7%

Nc1ccn(C2OC(CO)C(O)C2(F)F)c(=O)n1 (centres undefined) + C=CC(=O)N1CCN(c2nc(OCC3CCCN3C)nc3c(F)c(-c4nc(N)cc(C)c4C(F)(F)F)c(Cl)cc23)C(C)C1
IC50 (second compound 0.00316 µM): 266 nM
IC50 (second compound 0.01 µM): 257 nM
IC50 (second compound 0.0316 µM): 215 nM
IC50 (second compound 0.1 µM): 278 nM
IC50 (second compound 0.316 µM): 243 nM
IC50 (second compound 1 µM): 580 nM
viability, T/C (second compound 0.00316 µM, first compound 0.00316 µM): 108%
viability, T/C (second compound 0.00316 µM, first compound 0.01 µM): 98.9%
viability, T/C (second compound 0.00316 µM, first compound 0.0316 µM): 99%
viability, T/C (second compound 0.00316 µM, first compound 0.1 µM): 80.1%
viability, T/C (second compound 0.00316 µM, first compound 0.316 µM): 44.1%
viability, T/C (second compound 0.00316 µM, first compound 1 µM): 31.6%
viability, T/C (second compound 0.01 µM, first compound 0.00316 µM): 98.3%
viability, T/C (second compound 0.01 µM, first compound 0.01 µM): 111%
viability, T/C (second compound 0.01 µM, first compound 0.0316 µM): 102%
viability, T/C (second compound 0.01 µM, first compound 0.1 µM): 72.4%
viability, T/C (second compound 0.01 µM, first compound 0.316 µM): 47.8%
viability, T/C (second compound 0.01 µM, first compound 1 µM): 35%
viability, T/C (second compound 0.0316 µM, first compound 0.00316 µM): 117%
viability, T/C (second compound 0.0316 µM, first compound 0.01 µM): 110%
viability, T/C (second compound 0.0316 µM, first compound 0.0316 µM): 118%
viability, T/C (second compound 0.0316 µM, first compound 0.1 µM): 69.2%
viability, T/C (second compound 0.0316 µM, first compound 0.316 µM): 46.9%
viability, T/C (second compound 0.0316 µM, first compound 1 µM): 33.8%
viability, T/C (second compound 0.1 µM, first compound 0.00316 µM): 90.1%
viability, T/C (second compound 0.1 µM, first compound 0.01 µM): 101%
viability, T/C (second compound 0.1 µM, first compound 0.0316 µM): 101%
viability, T/C (second compound 0.1 µM, first compound 0.1 µM): 79.8%
viability, T/C (second compound 0.1 µM, first compound 0.316 µM): 47.2%
viability, T/C (second compound 0.1 µM, first compound 1 µM): 34.4%
viability, T/C (second compound 0.316 µM, first compound 0.00316 µM): 117%
viability, T/C (second compound 0.316 µM, first compound 0.01 µM): 125%
viability, T/C (second compound 0.316 µM, first compound 0.0316 µM): 107%
viability, T/C (second compound 0.316 µM, first compound 0.1 µM): 65.6%
viability, T/C (second compound 0.316 µM, first compound 0.316 µM): 52.2%
viability, T/C (second compound 0.316 µM, first compound 1 µM): 32.9%
viability, T/C (second compound 1 µM, first compound 0.00316 µM): 101%
viability, T/C (second compound 1 µM, first compound 0.01 µM): 101%
viability, T/C (second compound 1 µM, first compound 0.0316 µM): 99%
viability, T/C (second compound 1 µM, first compound 0.1 µM): 88%
viability, T/C (second compound 1 µM, first compound 0.316 µM): 65.3%
viability, T/C (second compound 1 µM, first compound 1 µM): 36.5%

From PubChem BioAssay AID2060905 (Molecular Pharmacology Branch, DTP, NCI, 2025)
